Experimental findings from US4831029A, “Condensed cyclic triazole derivatives, pharmaceutical compositions and use” (priority 1986, dated 1989) are described below.

Molecules are shown by their SMILES. Where a name gives a salt, the structure may show the parent alone.

Type in all cases: in vivo
The nature of data set [1]: Yohimbine potentiating effect. On the procedure: The yohimbine potentiating effect is determined by the method of R. M. Quinton: Brit. […] Scand.
Data set [2] can be described thus: Spasmolytic effect (inhibition of tetracor spasms). To be noted: for ED50: inhibition of tetracor spasms. The text has this:
(§1) The following test methods are used: Motility inhibition test: J. Borsy, E. Csanyi, J. Lazar: J. Arch. Int. Pharmacodyn. 124, 1-2 (1960); Inhibition of tetracor spasms: R. Benzinger, D. Hane: Arch. Int Pharmacodyn. 167, 245-249 (1967).

Data set [3] is described as follows: Hexobarbital narcosis potentiating effect. To be noted: for Hexobarbital narcosis potentiating effect T.I. (therapeutical index): narcosis potentiation; for ED50: positive = narcosis time lengthened to at least 2.5-fold of control. The procedure:
In the hexobarbital narcosis potentiating test those animals are regarded as showing positive reaction in which the average narcosis time is lengthened to at least 2.5-fold of that of the control group.
The ED50 values are calculated from the data thus transformed.

Data set [4] can be described thus: Motility inhibiting effect. The settings on record: for Motility inhibiting effect T.I. (therapeutical index): motility inhibition; for ED50: read-out: Motility inhibiting effect ED50.
Text: as §1

By ED50 is commonly meant the dose at which the effect has come halfway, by size or by number of responders. Consider `CN(C)CCC=C1c2ccccc2CCc2ccccc21` [Amitriptilin, reference compound], for which the ED50 in data set [1] (method of Quinton, read-out: Yohimbin potentiating effect ED50) stood at 12.5 mg/kg.
Turning to `O=c1c2c(n(CCN3CCCCC3)c3nc(N4CCOCC4)nn13)CCN(Cc1ccccc1)C2` [Example 18, 7-Benzyl-2-morpholino-10-(2-piperidinoethyl)-6,7,8,9-tetrahydro-pyrido[4,3-d]-1,2,4-triazolo[1,5-a]pyrimidine-5(10H)-one], in data set [2], the “Spasmolytic effect T.I. (therapeutical index)” value is recorded as 6.6 and the ED50 was determined as 150 mg/kg.
Regarding `CN(C)CCCn1c2c(c(=O)n3nc(N4CCOCC4)nc13)CCN(Cc1ccccc1)C2` [Example 19, 8-Benzyl-10-(3-dimethylaminopropyl)-2-morpholino-6,7,8,9-tetrahydro-pyrido[3,4-d]-1,2,4-triazolo[1,5-a]pyrimidine-5(10H)-one], the “Hexobarbital narcosis potentiating effect T.I. (therapeutical index)” value in data set [3] is on record as 6.0. In addition, the ED50 in data set [3] and in data set [4] (motility inhibition test) was 200 mg/kg each time. For the same compound, the “Motility inhibiting effect T.I. (therapeutical index)” value in data set [4] is given as 6.0.
Consider `O=c1c2c(n(CCN3CCCCC3)c3nc(N4CCOCC4)nn13)CN(Cc1ccccc1)CC2` [Example 19c, 8-Benzyl-2-morpholino-10-(2-piperidino-ethyl)-6,7,8,9-tetrahydro-pyrido[3,4-d]-1,2,4-triazolo[1,5-a]pyrimidine-5(10H)-one], for which, in data set [2], the “Spasmolytic effect T.I. (therapeutical index)” value is 6.7 and the ED50 stood at 150 mg/kg. In addition, in data set [1] (T.I.=therapeutical index, yohimbine potentiation), the “Yohimbin potentiating effect T.I. (therapeutical index)” value came out at 47.
Turning to `CSc1nc2n(CCCN3CCOCC3)c3c(c(=O)n2n1)CN(Cc1ccccc1)CC3` [Example 19g, 7-Benzyl-2-methylthio-10-(3-morpholino-propyl)-6,7,8,9-tetrahydro-pyrido[4,3-d]-1,2,4-triazolo[1,5-a]pyrimidine-5(10H)-one fumarate], in data set [2], the “Spasmolytic effect T.I. (therapeutical index)” value was found to be 8.5 and the 50% effective dose (ED50) turned out to be 100 mg/kg.
The corresponding values for `O=c1c2c(n(CCN3CCCC3)c3nc(N4CCOCC4)nn13)CN(Cc1ccccc1)CC2` [Example 20, 8-Benzyl-2-morpholino-10-(2-pyrrolidinoethyl)-6,7,8,9-tetrahydro-pyrido[3,4-d]-1,2,4-triazolo[1,5-a]pyrimidine-5(10H)-one] are 6.5 and 155 mg/kg.
For the compound `CCCC(C)(COC(N)=O)COC(N)=O` [Meprobamat, reference compound], in data set [3], the “Hexobarbital narcosis potentiating effect T.I. (therapeutical index)” value amounted to 4.1 and the ED50 amounted to 260 mg/kg. In data set [4], the “Motility inhibiting effect T.I. (therapeutical index)” value worked out at 4.1 and the ED50 worked out at 270 mg/kg.
`CN1C(=O)OC(C)(C)C1=O` [Trimetadion, reference compound] came in with a 50% effective dose (ED50) in data set [2] of 490 mg/kg.
